Active and inactive are the calls of the source. No cut-off for these calls is given here.
Assays:
Escherichia coli = assay: Inhibition of recombinant Escherichia coli O104:H4 Beta-1,3-galactosyltransferase WbwC expressed in Escherichia coli BL21 at 0.5 mM in presence of UDP-[3H]Gal and GalNAC-PO3-PO3-(CH2)11-O-phenyl after 1 hr by scintillation counting method relative to control
[1] = Inhibition of recombinant Escherichia coli O104:H4 Beta-1,3-galactosyltransferase WbwC expressed in Escherichia coli BL21 in presence of UDP-[3H]Gal and GalNAC-PO3-PO3-(CH2)11-O-phenyl after 1 hr by scintillation counting method
Pseudomonas aeruginosa = assay: Antimicrobial activity against Pseudomonas aeruginosa PAO1 assessed as inhibition of colony formation at 50 uM preincubated for 4 hrs and measured after overnight incubation by CFU assay; assay type: functional
[2] = Growth inhibition of human OC-3-VGH cells at 0.5 mM after 24 hrs by MTT assay; assay type: cell-based; details: read-out: GI
OC-3-VGH [3] = assay: Growth inhibition of human OC-3-VGH cells after 24 hrs by MTT assay; assay type: cell-based
PC-3 [4] = assay: Growth inhibition of human PC3 cells at 0.5 mM after 24 hrs by MTT assay; assay type: cell-based; details: pc-3, 24 h, 500 µM
PC-3 [5] = assay: Growth inhibition of human PC3 cells after 24 hrs by MTT assay; assay type: cell-based; details: pc-3, 24 h
A549 [6] = assay: Growth inhibition of human A549 cells at 0.5 mM after 24 hrs by MTT assay; assay type: cell-based; details: a549, 24 h, 500 µM
A549 [7] = assay: Growth inhibition of human A549 cells after 24 hrs by MTT assay; assay type: cell-based; details: a549, 24 h
AD293 [8] = assay: Growth inhibition of human AD293 cells at 0.5 mM after 24 hrs by MTT assay; assay type: cell-based; details: ad293, 24 h, 500 µM
AD293 [9] = assay: Growth inhibition of human AD293 cells after 24 hrs by MTT assay; assay type: cell-based; details: ad293, 24 h
OC-3-VGH [10] = assay: Inhibition of cell migration in human OC-3-VGH cells at 500 uM incubated for 18 hrs by scratch wound healing assay; assay type: cell-based
[11] = molecular target: T1, Beta-1,4-galactosyltransferase 1 (Bos taurus) (UniProt P08037); assay: Inhibition of bovine milk Beta-1,4-galactosyltransferase at 0.5 mM in presence of UDP-[3H]Gal and GlcNAc-beta-Bn after 1 hr by scintillation counting method
T1 sequence (whole entry): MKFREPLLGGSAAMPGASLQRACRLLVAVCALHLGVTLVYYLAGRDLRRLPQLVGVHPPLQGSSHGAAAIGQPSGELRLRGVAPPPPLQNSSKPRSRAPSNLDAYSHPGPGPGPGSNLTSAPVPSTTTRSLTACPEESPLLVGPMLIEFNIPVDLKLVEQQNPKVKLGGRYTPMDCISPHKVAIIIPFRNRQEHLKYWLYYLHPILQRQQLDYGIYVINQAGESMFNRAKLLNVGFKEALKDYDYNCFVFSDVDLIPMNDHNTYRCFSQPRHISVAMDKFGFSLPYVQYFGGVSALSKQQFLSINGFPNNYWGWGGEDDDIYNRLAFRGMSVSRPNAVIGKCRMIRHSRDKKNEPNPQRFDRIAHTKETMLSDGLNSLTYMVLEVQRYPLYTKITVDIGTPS

[12] = Growth inhibition of human OC-3-VGH cells at 1 mM after 24 hrs by MTT assay; assay type: cell-based; details: read-out: GI

| Structure (SMILES) | inhibition (Escherichia coli) | IC50 [1] | inhibition at 50 µM (Pseudomonas aeruginosa) | inhibition at 24 h, 500 µM [2] | IC50 (OC-3-VGH [3]) | growth inhibition (GI) (PC-3 [4]) | growth inhibition (GI) (PC-3 [5]) | growth inhibition (GI) (A549 [6]) | growth inhibition (GI) (A549 [7]) | growth inhibition (GI) (AD293 [8]) | growth inhibition (GI) (AD293 [9]) | inhibition (INH) (OC-3-VGH [10]) | inhibition [11] | inhibition (Pseudomonas aeruginosa) | inhibition at 24 h, 1000 µM [12] |
| --- | --- | --- | --- | --- | --- | --- | --- | --- | --- | --- | --- | --- | --- | --- | --- |
| CS(=O)(=O)[O-].CS(=O)(=O)[O-].C[n+]1ccn(CCCCCCCCCCCCCCCCCCCCn2cc[n+](C)c2)c1 | 91% | 230 µM | > 90% | 80% | 5 to 12 µM | Toxic | Toxic | Toxic | Toxic | Toxic | Toxic | Active |  |  |  |
| CCCC(=O)N[C@@H]1[C@@H](O)[C@H](O)[C@@H](CO)O[C@H]1Sc1ccc2ccccc2c1 |  |  |  |  |  |  |  |  |  |  |  |  | inactive | inactive | 50% |
| C[n+]1ccn(CCCCCCCCCCCCCCCCCCn2cc[n+](C)c2)c1.[Cl-].[Cl-] | < 1% |  |  | 80% | 5 to 12 µM | Toxic | Toxic | Toxic | Toxic | Toxic | Toxic |  |  |  |  |

— ChEMBL document CHEMBL4622844, “Inhibition of bacterial growth and galactosyltransferase activity of WbwC by α, ω-bis(3-alkyl-1H-imidazolium)alkane salts: Effect of varying carbon content” (Bioorg Med Chem, 2020)
